# Laboratory results taken from patent publication US20050221987A1, “Use of certain phospholipids to deliver hormonal effects to plants” (priority 2004, published 2005).
# Values joined by “and” are separate entries in the source; they are usually repeats but may differ in a detail not shown here. Equal values may be shown once.
# Legend:
# radish cotyledons [1] = assay: Radish cotyledon bioassay (kinetin-induced expansion growth and chlorophyll content); type: in vivo, Raphanus sativus L. cv. Cherry-Belle; settings: for Type of hormone-like activity: radish cotyledon bioassay
# Description: Radish cotyledon bioassay. The radish cotyledon bioassay was essentially as described by Letham D S (1971) Physiologia Plantarum 25:391-396, which is herein incorporated by reference in its entirety. Seeds of Raphanus sativus L. cv. Cherry-Belle were germinated in darkness at 25° C. for 36 hours in Petri dishes containing filter paper wetted with distilled water. The smaller of the two cotyledons was excised, the fresh weight determined, and 10 cotyledons placed adaxial side down on filter paper in Petri dishes containing potassium phosphate buffer (2 mM, pH 6.0) with kinetin (0.2 mg/L, added to simulate natural growing conditions) and the compounds to be tested at 20 mg/L. Cotyledons were then incubated under continuous illumination up to 72 hours at 25° C. and the increase in fresh weight determined. Chlorophyll content was determined after extraction of tissue into 80% ethanol (containing butylated hydroxytoluene, 10 mg/L) and quantified spectrophotometrically using the equations Chl a=(13.95A663)−(6.88A647) and Chl b=(24.96A652)−(7.32A663) as described by Lichtenthal H K (1987) Methods in Enzymology 148:350-382, which is herein incorporated by reference in its entirety.
# radish hypocotyls = assay: Radish hypocotyl bioassay for anthocyanins; type: in vivo, Raphanus sativus L. cv. Cherry-Belle
# Description: Radish hypocotyl bioassay for anthocyanins. An anthocyanin bioassay was developed using intact germinated seeds of radish (Raphanus sativus L. cv. Cherry-Belle). Seeds of radish were germinated in darkness at 25° C. for 40 hours in Petri dishes containing filter paper wetted with distilled water. Whole seedlings were transferred to Petri dishes containing the test solutions in potassium phosphate buffer (2 mM, pH 6.0 containing 0.2 mg/L kinetin to simulate natural growing conditions). The seedlings were incubated under bright light for 28 h prior to extraction of hypocotyl tissue and spectrophotometric quantification of anthocyanins. Anthocyanin content was determined spectrophotometrically after tissue extraction into 99 parts ethanol and 1 part concentrated HCl. The absorbance of the acidic ethanol fraction was measured at 510 nm and the final anthocyanin content calculated using an extinction coefficient of 31.76 mmol cm^−1 for raphanisuns (Ishikura N. and Hayashi K. Chromatographic separation and characterization of the component anthocyanins in radish root. Botanical Magazine Tokyo 76:6-13, 1963, which is herein incorporated by reference in its entirety).
# [2] = system: Hydroponic tomatoes (var. Trust); assay: Color impact on tomato (greenhouse spray); type: in vivo
# Description: The color impact of NALPE-2 on tomato. Hydroponic tomatoes (var. Trust) in a commercial greenhouse located in Arena, Wis. were treated with NALPE-2 (50 mg/L) using a hand pump spray bottle. Five tomato clusters each with 3-5 fruit in the early ripening stages (breaker) were used. The clusters were sprayed such that little overspray left the immediate area as to not contaminate other vines. Ambient conditions in the greenhouse at the time of application were about 75° F. and 70% relative humidity, full sun. Drying time was approximately 0.5 hr. Fruit were harvested after 7 days and transported to the laboratory for visual color comparison.
# Bolivian Rainbow Peppers = assay: Color impact on hot pepper (greenhouse); type: in vivo
# Description: The color impact of NALPE-2 on hot pepper. Potted ornamental peppers (var. Bolivian Rainbow Peppers) in laboratory greenhouses located in Middleton, Wis. were treated with NALPE-2 (50 mg/L). […] 40-50 fruits were tagged and labeled. The pepper color stage was noted prior to application and two plants were used. Ambient conditions in the greenhouse at the time of application were about 80° F. and 70% relative humidity. Drying time was approximately 0.5 hr. After 14 days the peppers were harvested and color group sorting was performed.
# radish cotyledons [3] = assay: Radish cotyledon bioassay (kinetin-induced expansion growth and chlorophyll content); type: in vivo, Raphanus sativus L. cv. Cherry-Belle; settings: kinetin 0.2 mg/l, 72 hours; for Change in fresh weight: n = 9
# [4] = NAPE-2 20 mg/L, kinetin 0.2 mg/l, 72 hours
# [5] = NALPE-2 50 mg/L applied 7 days prior to harvest, tomatoes
# [6] = NALPE-2 50 mg/L applied 14 days prior to harvest, Bolivian Rainbow Peppers
substance,measurement,setting,value
N-acetylphosphatidylethanolamine [NAPE-2],Effect on total amount of chlorophyll during radish cotyledon expansion,radish cotyledons [1],did not change the total amount of chlorophyll
same,Change in fresh weight,"radish cotyledons [1]; NAPE-2 20 mg/L, kinetin 0.2 mg/l, 2 mM PB pH 6.0, 25° C., 72 hours, n = 3",18.90 ± 1.74 mg and 21.37 ± 1.09 mg and 22.52 ± 3.42 mg
same,"Change in fresh weight, % of control",radish cotyledons [1]; [4],110 % of control and 108 % of control
same,Chlorophyll a/b,radish cotyledons [1]; [4],1.82
same,Type of hormone-like activity,radish cotyledons [1],cytokinin-like activity
same,Increase of cotyledon fresh weight,radish cotyledons [1]; summary of Table 1,about 10%
N-acetyl lysophosphatidylethanolamine [NALPE-2],"Change in fresh weight, % of control","radish cotyledons [1]; NALPE-2 20 mg/l, kinetin 0.2 mg/l, 72 hours",66 % of control
same,Change in fresh weight,"radish cotyledons [1]; NALPE-2 20 mg/l, kinetin 0.2 mg/l, 72 hours, n = 9",9.88 ± 4.93 mg
same,Effect on expansion growth of radish cotyledons,"radish cotyledons [1]; Table 2, dependent upon concentration",inhibitory activity
same,Type of hormone-like activity,radish cotyledons [1],ethylene-like activity
same,Anthocyanin,"radish hypocotyls; NALPE-2 15 mg/l, kinetin 0.2 mg/l, 25° C., 28 hours, n = 4",2.637 ± 0.005 μg/hypocotyl
same,"Anthocyanin, % of control","radish hypocotyls; NALPE-2 15 mg/l, kinetin 0.2 mg/l, 28 hours",125 % of control
same,Effect on anthocyanin pigment in radish hypocotyls,radish hypocotyls; summary of Table 3,enhanced the amount of anthocyanin pigment
same,Color Stage Light Red,[2]; [5],17%
same,"Color Stage Others (breaker, turning, and pink stage)",[2]; [5],16%
same,Color Stage Red,[2]; [5],67%
same,Effect on color development in tomatoes,[2]; text summary of Table 4,accelerated color development
same,Color Stage Blue,Bolivian Rainbow Peppers; [6],22%
same,Color Stage Orange,Bolivian Rainbow Peppers; [6],20%
same,Color Stage Purple,Bolivian Rainbow Peppers; [6],19%
same,Color Stage Red,Bolivian Rainbow Peppers; [6],32%
same,Color Stage Yellow,Bolivian Rainbow Peppers; [6],6%
same,Effect on color development in hot peppers,Bolivian Rainbow Peppers; Table 5,accelerated color development
same,"Change in fresh weight, % of control",radish cotyledons [3]; NALPE-2 0.2 mg/l,92 % of control
same,Change in fresh weight,radish cotyledons [3]; NALPE-2 0.2 mg/l,13.68 ± 4.79 mg
same,"Change in fresh weight, % of control",radish cotyledons [3]; NALPE-2 200 mg/l,58 % of control
same,Change in fresh weight,radish cotyledons [3]; NALPE-2 200 mg/l,8.64 ± 5.46 mg
